# Earlier results, collected in patent US20250288631A1, “PHYTOTHERAPY FORMULATION FOR SEXUAL DYSFUNCTIONS” (priority 2022, published 2025).
# Details: EFSA (2015)
structure (smiles),measurement,setting,value
C/C=C/C=C\CC/C=C/C(=O)NCC(C)C [spilanthol],EFSA classification,,class III
same,Exposure limit,"class III, 60 kg person",90 µg/person/day
